The record followed here is PMC8844914, “Structural Basis for the Peptidoglycan-Editing Activity of YfiH” (mBio, 2022).

For one test, the target named is T1, MurC (Escherichia coli, UniProt P17952).
T1 construct: C-terminal 6xHis tag (pET21a), expressed in E. coli BL21(DE3)
The test can be described thus: ligase reaction, product UDP-MurNAc-Gly by mass spectrometry. The format is biochemical. The following applies: 18 mM Gly, 1 mM UDP-MurNAc, 5 mM ATP, 20 uM MurC, 24 h; low yield.

Test [1] deals with T2, YfiH (PgeF) (Escherichia coli, UniProt P33644, C107A).
T2 construct: full length, C-terminal 6xHis tag (pET21a), expressed in E. coli BL21(DE3); Met1 not seen in crystal
As to the kind of experiment: X-ray crystal structure, […] A. The following applies: endogenous ligand copurified from E. coli; pH 5.4; active-site groove. The format is binding.

For another test, the target named is T3, MurD (Escherichia coli, UniProt P14900).
T3 construct: C-terminal 6xHis tag (pET21a), expressed in E. coli BL21(DE3)
T3 sequence (P14900 2-438): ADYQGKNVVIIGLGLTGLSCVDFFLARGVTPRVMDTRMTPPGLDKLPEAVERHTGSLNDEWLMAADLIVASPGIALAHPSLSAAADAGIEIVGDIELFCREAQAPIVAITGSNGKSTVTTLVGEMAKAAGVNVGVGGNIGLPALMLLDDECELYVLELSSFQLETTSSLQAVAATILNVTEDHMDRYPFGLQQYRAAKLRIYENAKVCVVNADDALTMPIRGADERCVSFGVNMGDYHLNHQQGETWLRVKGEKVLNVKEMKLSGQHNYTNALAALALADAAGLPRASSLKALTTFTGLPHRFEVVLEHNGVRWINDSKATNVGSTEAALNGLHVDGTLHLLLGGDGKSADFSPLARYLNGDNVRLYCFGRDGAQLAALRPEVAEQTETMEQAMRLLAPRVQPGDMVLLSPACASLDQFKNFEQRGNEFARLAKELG
The test can be described thus: ligase reaction, product by HPLC and ESI-MS. The format is biochemical. The following applies: 2 mM D-glutamate, 5 mM ATP, 10 mM MgCl2, pH 8.0, 37 C; preparative synthesis with MurC and MurD.

Test [2] concerns the target T2, YfiH (PgeF). The test can be described thus: X-ray crystal structure, […] A. The following applies: soaked into YfiH-C107A crystals; pH 5.4; active-site groove. The format is binding.

T2 sequence (P33644 whole entry C107A): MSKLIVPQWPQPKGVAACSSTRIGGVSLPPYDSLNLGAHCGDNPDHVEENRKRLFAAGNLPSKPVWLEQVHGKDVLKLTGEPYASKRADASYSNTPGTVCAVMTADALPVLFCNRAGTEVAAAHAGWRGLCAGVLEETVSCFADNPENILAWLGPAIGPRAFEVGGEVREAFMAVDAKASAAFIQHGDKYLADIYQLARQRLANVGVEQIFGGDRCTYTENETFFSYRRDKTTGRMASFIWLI
T1 sequence (P17952 whole entry): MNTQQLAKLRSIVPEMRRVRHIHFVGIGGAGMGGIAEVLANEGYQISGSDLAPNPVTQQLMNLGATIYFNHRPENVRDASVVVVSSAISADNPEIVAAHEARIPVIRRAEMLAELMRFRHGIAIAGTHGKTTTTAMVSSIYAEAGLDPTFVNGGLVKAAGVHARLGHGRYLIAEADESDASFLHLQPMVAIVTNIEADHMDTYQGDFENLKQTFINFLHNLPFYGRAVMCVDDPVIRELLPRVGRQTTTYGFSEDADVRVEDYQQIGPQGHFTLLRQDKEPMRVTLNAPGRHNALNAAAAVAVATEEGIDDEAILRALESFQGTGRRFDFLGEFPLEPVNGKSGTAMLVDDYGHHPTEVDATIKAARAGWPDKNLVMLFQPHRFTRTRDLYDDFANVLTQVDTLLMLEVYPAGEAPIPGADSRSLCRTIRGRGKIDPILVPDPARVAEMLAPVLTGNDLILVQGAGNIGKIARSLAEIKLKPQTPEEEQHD

Regarding `NCC(=O)O` [Gly, glycine], the “ligase reaction, product UDP-MurNAc-Gly by mass spectrometry” value at MurC is “enzymatic synthesis with MurC, using glycine as a substrate”.
For `CC(=O)N[C@H]1[C@@H](OP(=O)(O)OP(=O)(O)OC[C@H]2O[C@@H](n3ccc(=O)[nH]c3=O)[C@H](O)[C@@H]2O)O[C@H](CO)[C@@H](O)[C@@H]1O[C@H](C)C(=O)O` [UM, UDP-MurNAc], the “X-ray crystal structure, 1.47 A” value at YfiH (PgeF) [1] is recorded as “This compound was unambiguously identified as UDP-MurNAc based on its high-resolution map”.
As for `CC(=O)N[C@H]1[C@@H](OP(=O)(O)OP(=O)(O)OC[C@H]2O[C@@H](n3ccc(=O)[nH]c3=O)[C@H](O)[C@@H]2O)O[C@H](CO)[C@@H](O)[C@@H]1O[C@H](C)C(=O)N[C@@H](C)C(=O)O` [UMA, UDP–MurNAc–L-Ala], on MurD, the “ligase reaction, product by HPLC and ESI-MS” value is on record as “we further synthesized UDP–MurNAc–L-Ala–D-Glu (UMAE)”.
For the compound `CC(=O)N[C@H]1[C@@H](OP(=O)(O)OP(=O)(O)OC[C@H]2O[C@@H](n3ccc(=O)[nH]c3=O)[C@H](O)[C@@H]2O)O[C@H](CO)[C@@H](O)[C@@H]1O[C@H](C)C(=O)N[C@@H](CO)C(=O)O` [UMS, UDP–MurNAc–L-Ser], the “X-ray crystal structure, 1.86 A” value on YfiH (PgeF) [2] is “we obtained the crystals of YfiH bound to UDP–MurNAc–L-Ser”. Besides, the “ligase reaction, product by HPLC and ESI-MS” value at MurD was “UDP–MurNAc–L-Ser–D-Glu (UMSE) with recombinant MurD”.
